From US20040072770A1, “Methods for specifically inhibiting histone deacetylase-7 and 8” (priority 2002, published 2004)

What was measured:
HDAC-7 = molecular target: T1, HDAC-7 (Homo sapiens, UniProt Q8WUI4); test: Enzyme inhibitory activity, HD7; type: biochemical; conditions: read-out: IC50 HD 7
T1 sequence (Q8WUI4 1-952): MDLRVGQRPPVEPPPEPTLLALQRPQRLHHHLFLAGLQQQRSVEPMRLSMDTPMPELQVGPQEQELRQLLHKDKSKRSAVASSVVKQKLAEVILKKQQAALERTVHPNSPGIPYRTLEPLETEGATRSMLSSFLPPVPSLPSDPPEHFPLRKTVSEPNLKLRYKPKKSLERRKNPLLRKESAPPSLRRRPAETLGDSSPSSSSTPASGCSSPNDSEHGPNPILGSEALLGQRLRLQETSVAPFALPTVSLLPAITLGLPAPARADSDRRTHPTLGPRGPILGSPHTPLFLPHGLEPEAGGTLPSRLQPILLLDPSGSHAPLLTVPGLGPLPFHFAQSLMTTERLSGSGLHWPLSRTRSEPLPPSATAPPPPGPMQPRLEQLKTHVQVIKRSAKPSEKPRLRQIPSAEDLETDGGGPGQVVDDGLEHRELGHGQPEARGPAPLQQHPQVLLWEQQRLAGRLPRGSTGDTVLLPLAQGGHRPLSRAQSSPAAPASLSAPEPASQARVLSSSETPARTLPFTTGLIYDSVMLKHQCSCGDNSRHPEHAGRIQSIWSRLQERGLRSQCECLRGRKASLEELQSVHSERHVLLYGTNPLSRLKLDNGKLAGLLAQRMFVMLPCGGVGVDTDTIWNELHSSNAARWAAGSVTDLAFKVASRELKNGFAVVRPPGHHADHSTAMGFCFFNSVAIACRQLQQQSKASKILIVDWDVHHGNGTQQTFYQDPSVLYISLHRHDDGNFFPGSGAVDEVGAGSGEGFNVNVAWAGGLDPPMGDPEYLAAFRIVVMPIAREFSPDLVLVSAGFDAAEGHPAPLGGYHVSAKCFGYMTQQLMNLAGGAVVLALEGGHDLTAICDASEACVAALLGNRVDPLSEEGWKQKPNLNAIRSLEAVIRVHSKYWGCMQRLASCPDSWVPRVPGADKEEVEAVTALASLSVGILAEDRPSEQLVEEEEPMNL

HDAC-8 = molecular target: T2, HDAC-8 (Homo sapiens, UniProt Q9BY41); test: Enzyme inhibitory activity, HD8; type: biochemical; conditions: read-out: IC50 HD 8
T2 sequence (Q9BY41 1-377): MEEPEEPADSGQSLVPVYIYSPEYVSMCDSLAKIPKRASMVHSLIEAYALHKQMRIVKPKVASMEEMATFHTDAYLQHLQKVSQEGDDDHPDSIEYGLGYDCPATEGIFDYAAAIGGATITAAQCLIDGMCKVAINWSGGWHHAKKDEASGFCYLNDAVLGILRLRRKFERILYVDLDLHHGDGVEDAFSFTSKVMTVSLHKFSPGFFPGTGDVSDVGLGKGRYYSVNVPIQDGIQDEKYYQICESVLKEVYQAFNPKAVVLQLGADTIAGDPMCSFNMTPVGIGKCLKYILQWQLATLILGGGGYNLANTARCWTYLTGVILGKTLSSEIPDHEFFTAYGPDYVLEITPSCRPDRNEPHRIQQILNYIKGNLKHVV

[1] = system: colon cancer cells HCT116; test: MTT assay, HCT116; type: cell-based, human; conditions: Homo sapiens, HCT-116; 72 hours
Experimental: (§1) Effects of HDAC isotype-specific small molecule inhibitors on growth inhibition of various human cancer cells (from ATCC) in vitro were determined by MTT assays. Briefly, cells seeded in 96-well plates were incubated for 72 hours at 37° C. in a 5% CO2 incubator. MTT (Sigma) was added at a final concentration of 0.5 mg/ml and incubated with the cells for 4 hours before an equal volume of solubilization buffer (50% N,N-dimethylformamide, 20% SDS, pH 4.7) was added onto cultured cells. After overnight incubation, solubilized dye was quantified by colorimetric reading at […] using a reference at 630 nM. OD values were converted to cell numbers according to a standard growth curve of the relevant cell line. The concentration which reduces cell numbers to 50% of those of DMSO-treated cells is determined as MTT IC50. In Table 4, IC50s of several HDAC7 or HDAC8 inhibitors in MTT assays in various human cancer cell lines were listed. They include colon cancer cells HCT116 and SW48, lung cancer cells A549 and H446, breast cancer cells MCF-7 and MDAmb231, a prostate cancer cell line Du145 and a bladder cancer cell line T24.

[2] = system: prostate cancer cell line Du145; test: MTT assay, Du145; type: cell-based; conditions: Homo sapiens, DU-145; 72 hours
Experimental: as §1

lung cancer cells A549 = test: MTT assay, A549; type: cell-based; conditions: Homo sapiens, 72 hours, read-out: IC50 A 549 (MTT)
Experimental: as §1

[3] = system: breast cancer cells MCF-7; test: MTT assay, MCF-7; type: cell-based; conditions: Homo sapiens, MCF7; 72 hours
Experimental: as §1

[4] = system: breast cancer cells MDAmb231; test: MTT assay, MDAmb231; type: cell-based; conditions: Homo sapiens, MDA-MB-231; 72 hours
Experimental: as §1

lung cancer cells H446 = test: MTT assay, H446; type: cell-based; conditions: Homo sapiens, NCI-H446; 72 hours; read-out: MTT IC50 H 446
Experimental: as §1

colon cancer cells SW48 = test: MTT assay, SW48; type: cell-based; conditions: Homo sapiens, 72 hours, read-out: MTT IC50 SW 48
Experimental: as §1

[5] = system: bladder cancer cell line T24; test: MTT assay, T24; type: cell-based; conditions: Homo sapiens; 72 hours; read-out: MTT IC50 T 24
Experimental: as §1

HDAC-1 = HDAC-1 (Homo sapiens, UniProt Q13547); test: Enzyme inhibitory activity, HD1; type: biochemical; conditions: read-out: IC50 HD 1
HDAC-4 = HDAC-4 (Homo sapiens, UniProt P56524); test: Enzyme inhibitory activity, HD4; type: biochemical
Chain of HDAC-4 (P56524 whole entry): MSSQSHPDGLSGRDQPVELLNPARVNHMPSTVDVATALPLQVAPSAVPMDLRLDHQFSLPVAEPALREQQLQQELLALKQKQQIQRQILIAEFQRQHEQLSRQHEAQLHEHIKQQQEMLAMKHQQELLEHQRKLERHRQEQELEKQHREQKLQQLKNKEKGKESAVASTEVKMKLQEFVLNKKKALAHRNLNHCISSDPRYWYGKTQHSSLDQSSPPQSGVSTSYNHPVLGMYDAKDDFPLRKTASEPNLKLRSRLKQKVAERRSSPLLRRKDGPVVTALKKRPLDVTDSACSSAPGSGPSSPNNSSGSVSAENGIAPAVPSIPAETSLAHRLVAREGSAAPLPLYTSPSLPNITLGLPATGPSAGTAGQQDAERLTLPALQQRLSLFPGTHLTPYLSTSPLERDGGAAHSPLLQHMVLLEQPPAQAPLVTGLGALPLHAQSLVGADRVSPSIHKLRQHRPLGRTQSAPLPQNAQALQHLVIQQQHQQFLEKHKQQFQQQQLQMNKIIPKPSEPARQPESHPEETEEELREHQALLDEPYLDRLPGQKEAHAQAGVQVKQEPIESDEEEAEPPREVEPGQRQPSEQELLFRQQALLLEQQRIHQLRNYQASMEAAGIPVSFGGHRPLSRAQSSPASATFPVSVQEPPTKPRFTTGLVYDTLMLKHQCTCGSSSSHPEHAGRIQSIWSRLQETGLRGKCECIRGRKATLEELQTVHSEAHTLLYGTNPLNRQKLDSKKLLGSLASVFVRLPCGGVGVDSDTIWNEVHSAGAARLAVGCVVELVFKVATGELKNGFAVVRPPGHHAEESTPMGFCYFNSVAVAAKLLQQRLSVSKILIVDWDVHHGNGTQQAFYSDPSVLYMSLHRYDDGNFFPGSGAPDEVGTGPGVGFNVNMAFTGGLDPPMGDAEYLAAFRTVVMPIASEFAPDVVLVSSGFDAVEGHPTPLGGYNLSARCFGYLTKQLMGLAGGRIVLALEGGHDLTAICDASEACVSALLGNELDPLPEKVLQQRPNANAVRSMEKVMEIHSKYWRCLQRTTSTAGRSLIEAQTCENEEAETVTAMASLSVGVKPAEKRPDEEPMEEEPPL

Chain of HDAC-1 (Q13547 whole entry): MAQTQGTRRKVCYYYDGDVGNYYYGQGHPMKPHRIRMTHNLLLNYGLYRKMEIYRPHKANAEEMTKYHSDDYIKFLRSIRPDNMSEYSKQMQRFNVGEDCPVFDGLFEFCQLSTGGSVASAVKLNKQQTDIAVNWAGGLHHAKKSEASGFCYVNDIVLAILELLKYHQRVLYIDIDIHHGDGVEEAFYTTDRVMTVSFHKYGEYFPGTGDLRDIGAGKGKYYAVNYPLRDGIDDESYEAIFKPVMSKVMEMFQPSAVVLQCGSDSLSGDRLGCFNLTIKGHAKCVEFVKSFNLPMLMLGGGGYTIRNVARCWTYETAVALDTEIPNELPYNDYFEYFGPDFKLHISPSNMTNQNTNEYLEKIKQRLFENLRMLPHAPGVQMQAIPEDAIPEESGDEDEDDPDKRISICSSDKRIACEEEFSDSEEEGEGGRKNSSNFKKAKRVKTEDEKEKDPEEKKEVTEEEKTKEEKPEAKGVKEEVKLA

| IC50 (HDAC-7) [nM] | IC50 (HDAC-8) [nM] | IC50 [1] [nM] | IC50 [2] [nM] | IC50 (lung cancer cells A549) [nM] | IC50 [3] [nM] | IC50 [4] [nM] | IC50 (lung cancer cells H446) [nM] | IC50 (colon cancer cells SW48) [nM] | IC50 [5] [nM] | IC50 (HDAC-1) [nM] | IC50 (HDAC-4) [nM] | SMILES |
| --- | --- | --- | --- | --- | --- | --- | --- | --- | --- | --- | --- | --- |
| 20000 | > 50000 | 4000 | 2000 | 8000 | 6000 | 2000 | 1000 | 10000 | 8000 |  |  | Cc1ccc(S(=O)(=O)Nc2ccc(/C=C/C(=O)Nc3ccccc3N)cc2)cc1 [Compound 5, N-(2-Aminophenyl)-3-[4-(4-methylbenzenesulfonylamino)-phenyl]-acrylamide] |
| 45000 | > 50000 | 400 | 2000 | 3000 | 3000 | 2000 | 900 | 2000 | 2000 | 2000 | > 50000 | COc1ccc(NCc2ccc(C(=O)Nc3ccccc3N)cc2)cc1OC [Compound 17, N-(2-Aminophenyl)-4-[(3,4-dimethoxyphenylamino)-methyl]-benzamide] |
| 37000 | > 50000 | 100 | 500 | 300 | 700 | 500 | 300 | 800 |  | 4000 | > 50000 | COc1ccc(-c2ccnc(NCc3ccc(C(=O)Nc4ccccc4N)cc3)n2)cc1OC [Compound 21, N-(2-Amino-phenyl)-4-{[4-(3,4-dimethoxy-phenyl)-pyrimidin-2-ylamino]-methyl}-benzamide] |

| SMILES | IC50 (HDAC-7) [nM] | IC50 (HDAC-8) [nM] | IC50 [1] [nM] | IC50 [2] [nM] | IC50 (lung cancer cells A549) [nM] | IC50 [3] [nM] | IC50 [4] [nM] | IC50 (lung cancer cells H446) [nM] | IC50 (colon cancer cells SW48) [nM] | IC50 [5] [nM] | IC50 (HDAC-1) [nM] | IC50 (HDAC-4) [nM] |
| --- | --- | --- | --- | --- | --- | --- | --- | --- | --- | --- | --- | --- |
| Nc1ccccc1NC(=O)c1ccc(CSc2nc3ccccc3[nH]2)cc1 [Compound 16, N-(2-Amino-phenyl)-4-(1H-benzimidazol-2-ylsulfanylmethyl)-benzamide] | 38000 |  | 200 | 700 | 2000 | 3000 | 1000 | 1000 | 2000 | 1000 | 300 | 29000 |
